Assay results taken from ChEMBL document CHEMBL2177022, “Novel acidic 11β-hydroxysteroid dehydrogenase type 1 (11β-HSD1) inhibitor with reduced acyl glucuronide liability: the discovery of 4-[4-(2-adamantylcarbamoyl)-5-tert-butyl-pyrazol-1-yl]benzoic acid (AZD8329)” (J Med Chem, 2012).
Activity calls are given as the source filed them. The rule behind the calls is not given here.

Tests used:
Rattus norvegicus [1] = experiment: Inhibition of 11betaHSD1 in lean Han Wistar rat adipose tissue assessed as reduction in assessed as [3H]cortisone to [3H]cortisol conversion at 10 mg/kg, po measured 3 hrs post dose; assay type: functional, organism-based; design: dose 10 mg/kg
Rattus norvegicus [2] = experiment: Inhibition of 11betaHSD1 in lean Han Wistar rat liver assessed as reduction in assessed as [3H]cortisone to [3H]cortisol conversion at 3 mg/kg, po measured 3 hrs post dose; assay type: functional
[3] = target: T1, 11-beta-hydroxysteroid dehydrogenase 1 (Homo sapiens, UniProt P28845); experiment: Inhibition of 11betaHSD1 in human adipocytes assessed as cortisone to cortisol conversion by scintillation counting method; assay type: cell-based
T1 sequence (P28845 whole entry): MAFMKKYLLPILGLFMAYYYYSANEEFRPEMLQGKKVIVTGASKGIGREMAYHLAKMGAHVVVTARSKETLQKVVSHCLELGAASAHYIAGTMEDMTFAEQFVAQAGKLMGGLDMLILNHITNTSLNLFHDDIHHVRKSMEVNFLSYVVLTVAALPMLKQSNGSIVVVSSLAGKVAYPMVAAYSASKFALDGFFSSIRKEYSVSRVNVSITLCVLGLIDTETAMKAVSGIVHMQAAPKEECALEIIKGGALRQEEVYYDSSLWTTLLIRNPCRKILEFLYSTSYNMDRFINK

[4] = Inhibition of N-terminal 6-His tagged full length cynomolgus monkey 11betaHSD1 incubated for 25 mins by HTRF assay; design: species or system Macaca fascicularis
[5] = Inhibition of N-terminal 6-His tagged full length dog 11betaHSD1 incubated for 25 mins by HTRF assay; design: species or system Canis lupus familiaris
[6] = target: 11-beta-hydroxysteroid dehydrogenase 1 (Rattus norvegicus, UniProt P16232); experiment: Inhibition of N-terminal 6-His tagged full length rat 11betaHSD1 incubated for 25 mins by HTRF assay
11-beta-hydroxysteroid dehydrogenase 1 (Rattus norvegicus, UniProt P16232), sequence (P16232 whole entry): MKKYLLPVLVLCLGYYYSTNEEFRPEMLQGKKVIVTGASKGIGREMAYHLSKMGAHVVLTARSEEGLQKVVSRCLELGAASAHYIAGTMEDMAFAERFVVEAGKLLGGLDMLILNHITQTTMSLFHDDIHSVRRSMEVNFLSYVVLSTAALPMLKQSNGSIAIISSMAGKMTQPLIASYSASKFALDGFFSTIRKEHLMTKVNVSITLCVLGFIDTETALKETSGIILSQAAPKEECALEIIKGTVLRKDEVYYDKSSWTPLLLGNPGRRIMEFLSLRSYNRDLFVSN

[7] = target: 11-beta-hydroxysteroid dehydrogenase 1 (Mus musculus, UniProt P50172); experiment: Inhibition of N-terminal 6-His tagged full length mouse 11betaHSD1 incubated for 25 mins by HTRF assay
11-beta-hydroxysteroid dehydrogenase 1 (Mus musculus, UniProt P50172), sequence (P50172 whole entry): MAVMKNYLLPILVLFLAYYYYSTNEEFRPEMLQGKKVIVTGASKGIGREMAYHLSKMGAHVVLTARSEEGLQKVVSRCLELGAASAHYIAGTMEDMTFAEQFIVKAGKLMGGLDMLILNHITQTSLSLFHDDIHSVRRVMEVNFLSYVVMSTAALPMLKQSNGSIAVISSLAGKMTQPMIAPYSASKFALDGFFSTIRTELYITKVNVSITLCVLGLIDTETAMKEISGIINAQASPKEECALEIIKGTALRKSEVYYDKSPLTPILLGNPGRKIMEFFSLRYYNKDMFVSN

Cavia porcellus = experiment: Toxicity in anesthetized guinea pig monophasic action potential model assessed as ventricular repolarization; assay type: organism-based, Cardiac ventricle; conditions: in vivo
L5178Y = experiment: Genotoxicity in mouse L5178Y cells; assay type: toxicity, cell-based
[8] = target: Mineralocorticoid receptor (Homo sapiens) (UniProt P08235); experiment: Inhibition of mineralocorticoid receptor
Mineralocorticoid receptor (Homo sapiens), sequence (P08235 whole entry): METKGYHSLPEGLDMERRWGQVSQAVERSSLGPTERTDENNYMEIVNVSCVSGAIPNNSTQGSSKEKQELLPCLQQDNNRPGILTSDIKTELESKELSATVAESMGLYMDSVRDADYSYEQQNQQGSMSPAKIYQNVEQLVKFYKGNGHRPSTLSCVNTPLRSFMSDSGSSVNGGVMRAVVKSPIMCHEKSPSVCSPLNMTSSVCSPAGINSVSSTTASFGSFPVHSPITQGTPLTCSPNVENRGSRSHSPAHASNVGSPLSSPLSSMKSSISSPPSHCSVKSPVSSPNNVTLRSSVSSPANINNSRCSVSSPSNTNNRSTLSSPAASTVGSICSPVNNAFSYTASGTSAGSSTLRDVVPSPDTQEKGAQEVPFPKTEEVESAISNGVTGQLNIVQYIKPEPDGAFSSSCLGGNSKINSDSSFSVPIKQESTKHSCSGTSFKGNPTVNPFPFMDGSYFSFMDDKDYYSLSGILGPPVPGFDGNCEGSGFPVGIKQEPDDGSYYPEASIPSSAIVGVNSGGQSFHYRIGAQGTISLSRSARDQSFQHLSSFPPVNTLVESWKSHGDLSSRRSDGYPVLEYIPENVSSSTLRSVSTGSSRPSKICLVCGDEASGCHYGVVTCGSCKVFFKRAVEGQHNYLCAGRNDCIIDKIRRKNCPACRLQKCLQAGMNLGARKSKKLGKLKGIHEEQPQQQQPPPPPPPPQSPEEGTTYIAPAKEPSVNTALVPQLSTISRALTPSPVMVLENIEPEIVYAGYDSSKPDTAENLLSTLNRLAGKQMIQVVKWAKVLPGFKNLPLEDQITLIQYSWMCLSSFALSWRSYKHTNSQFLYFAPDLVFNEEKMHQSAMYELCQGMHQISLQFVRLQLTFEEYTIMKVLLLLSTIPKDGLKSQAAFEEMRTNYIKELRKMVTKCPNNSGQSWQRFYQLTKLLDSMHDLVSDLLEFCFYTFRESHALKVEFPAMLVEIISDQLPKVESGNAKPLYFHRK

Salmonella typhimurium = experiment: Genotoxicity in Salmonella typhimurium by Ames test; assay type: toxicity, organism-based; conditions: salmonella enterica subsp. enterica serovar typhimurium
[9] = target: Glucocorticoid receptor (Homo sapiens) (UniProt P04150); experiment: Inhibition of glucocorticoid receptor
Glucocorticoid receptor (Homo sapiens), sequence (P04150 whole entry): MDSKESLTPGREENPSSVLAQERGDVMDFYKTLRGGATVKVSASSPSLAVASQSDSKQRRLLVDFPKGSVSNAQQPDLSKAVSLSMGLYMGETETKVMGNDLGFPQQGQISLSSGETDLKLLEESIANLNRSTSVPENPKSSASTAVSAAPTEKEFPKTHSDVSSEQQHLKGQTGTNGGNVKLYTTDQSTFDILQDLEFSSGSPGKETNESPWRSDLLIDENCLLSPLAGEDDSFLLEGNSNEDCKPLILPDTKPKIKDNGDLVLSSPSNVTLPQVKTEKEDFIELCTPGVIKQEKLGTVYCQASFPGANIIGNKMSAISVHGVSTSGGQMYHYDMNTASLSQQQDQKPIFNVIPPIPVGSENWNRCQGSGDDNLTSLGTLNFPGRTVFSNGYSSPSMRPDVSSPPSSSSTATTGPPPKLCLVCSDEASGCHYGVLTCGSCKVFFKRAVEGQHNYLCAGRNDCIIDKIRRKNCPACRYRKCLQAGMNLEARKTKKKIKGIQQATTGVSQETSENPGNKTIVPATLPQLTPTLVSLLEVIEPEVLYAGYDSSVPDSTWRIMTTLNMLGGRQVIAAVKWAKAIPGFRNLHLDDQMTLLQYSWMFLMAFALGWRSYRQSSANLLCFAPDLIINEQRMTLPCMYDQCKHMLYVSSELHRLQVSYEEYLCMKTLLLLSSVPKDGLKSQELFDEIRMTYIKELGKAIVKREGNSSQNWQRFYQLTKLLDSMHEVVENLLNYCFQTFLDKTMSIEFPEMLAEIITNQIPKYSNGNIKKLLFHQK

[10] = target: 17-beta-hydroxysteroid dehydrogenase type 3 (Homo sapiens) (UniProt P37058); experiment: Inhibition of 17beta-HSD3 assessed as conversion of androstenedione to testosterone at 10 uM by scintillation counting method
[11] = target: 17-beta-hydroxysteroid dehydrogenase type 1 (Homo sapiens, UniProt P14061); experiment: Inhibition of 17beta-HSD1 assessed as conversion of estrone to estradiol by scintillation counting method
17-beta-hydroxysteroid dehydrogenase type 1, sequence (P14061 whole entry): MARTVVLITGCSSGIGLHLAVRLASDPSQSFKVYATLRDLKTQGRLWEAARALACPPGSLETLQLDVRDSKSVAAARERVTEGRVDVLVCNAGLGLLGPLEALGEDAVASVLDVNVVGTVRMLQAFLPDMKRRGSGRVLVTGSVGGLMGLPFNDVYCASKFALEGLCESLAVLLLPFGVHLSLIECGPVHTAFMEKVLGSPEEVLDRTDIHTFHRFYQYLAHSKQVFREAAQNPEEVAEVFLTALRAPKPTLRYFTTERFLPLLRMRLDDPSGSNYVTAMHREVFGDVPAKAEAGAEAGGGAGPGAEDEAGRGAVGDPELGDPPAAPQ

[12] = target: 11-beta-hydroxysteroid dehydrogenase type 2 (Homo sapiens, UniProt P80365); experiment: Inhibition of 11beta-HSD2 assessed as conversion of cortisol to cortisone by fluorescence based assay
11-beta-hydroxysteroid dehydrogenase type 2, sequence (P80365 whole entry): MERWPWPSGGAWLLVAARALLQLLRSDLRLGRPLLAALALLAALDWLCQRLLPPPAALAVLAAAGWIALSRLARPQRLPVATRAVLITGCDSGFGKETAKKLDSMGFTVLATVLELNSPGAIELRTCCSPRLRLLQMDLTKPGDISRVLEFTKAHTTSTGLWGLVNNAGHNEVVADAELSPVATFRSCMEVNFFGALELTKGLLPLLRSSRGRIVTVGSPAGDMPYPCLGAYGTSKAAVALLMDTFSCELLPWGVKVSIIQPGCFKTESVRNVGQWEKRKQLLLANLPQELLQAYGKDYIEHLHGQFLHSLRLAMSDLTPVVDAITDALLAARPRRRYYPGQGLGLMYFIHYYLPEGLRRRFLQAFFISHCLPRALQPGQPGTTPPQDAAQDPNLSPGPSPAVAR

[13] = Drug metabolism in bile duct cannulated rat urine assessed as oxidative metabolism level during 0 to 6 hrs post dose by metabolism-ID study; assay type: ADME, tissue-based; conditions: in vivo
[14] = Drug metabolism in bile duct cannulated rat bile assessed as oxidative metabolism level during 0 to 6 hrs post dose by metabolism-ID study; assay type: ADME; conditions: in vivo
[15] = Stability in bile duct cannulated rat urine assessed as parent compound remaining measured during 0 to 6 hrs post dose; assay type: ADME, tissue-based; conditions: in vivo
[16] = Stability in bile duct cannulated rat bile assessed as parent compound remaining measured during 0 to 6 hrs post dose; assay type: ADME; conditions: in vivo
[17] = Drug metabolism in dog hepatocytes assessed as oxidative metabolism level by metabolism-ID study; assay type: ADME, cell-based, Canis lupus familiaris, Hepatocyte
Hepatocyte [18] = experiment: Stability in rat hepatocytes assessed as parent compound remaining; assay type: ADME, cell-based
[19] = Stability in dog hepatocytes assessed as parent compound remaining; assay type: ADME, cell-based, Canis lupus familiaris, Hepatocyte
Hepatocyte [20] = experiment: Stability in human hepatocytes assessed as parent compound remaining; assay type: ADME, cell-based
Liver microsomes = experiment: Stability in human liver microsomes assessed as oxidative metabolism-mediated generation of reactive metabolites; assay type: ADME, Microsome
Rattus norvegicus [21] = experiment: Renal clearance in rat at 1 and 3 mg/kg relative to total clearance; assay type: ADME, organism-based, Kidney; design: dose 3 mg/kg; conditions: in vivo
Canis familiaris = experiment: Renal clearance in dog at 1 and 3 mg/kg relative to total clearance; assay type: ADME, organism-based, Canis lupus familiaris, Kidney; design: dose 3 mg/kg; conditions: in vivo
[22] = Oral bioavailability in rat at 1 and 3 mg/kg; assay type: ADME, organism-based; conditions: in vivo
[23] = Oral bioavailability in dog at 1 and 3 mg/kg; assay type: ADME, organism-based, Canis lupus familiaris; conditions: in vivo
[24] = Oral bioavailability in mouse at 1 and 3 mg/kg; assay type: ADME, organism-based; conditions: in vivo
[25] = Half life in mouse at 1 and 3 mg/kg, po; assay type: ADME, organism-based; design: dose 3 mg/kg, route oral; conditions: in vivo
[26] = Half life in rat at 1 and 3 mg/kg, po; assay type: ADME, organism-based; design: dose 3 mg/kg, route oral; conditions: in vivo
[27] = Half life in dog at 1 and 3 mg/kg, po; assay type: ADME, organism-based, Canis lupus familiaris; design: dose 3 mg/kg, route oral; conditions: in vivo
[28] = Half life in rat at 1 and 3 mg/kg, iv; assay type: ADME, organism-based; design: dose 3 mg/kg, route intravenous; conditions: in vivo
[29] = Half life in dog at 1 and 3 mg/kg, iv; assay type: ADME, organism-based, Canis lupus familiaris; design: dose 3 mg/kg, route intravenous; conditions: in vivo
[30] = Volume of distribution at steady state in dog at 1 and 3 mg/kg; assay type: ADME, organism-based, Canis lupus familiaris; design: dose 3 mg/kg; conditions: in vivo, read-out: Vdss
[31] = Half life in mouse at 1 and 3 mg/kg, iv; assay type: ADME, organism-based; design: dose 3 mg/kg, route intravenous; conditions: in vivo
[32] = Volume of distribution at steady state in rat at 1 and 3 mg/kg; assay type: ADME, organism-based; design: dose 3 mg/kg; conditions: in vivo, read-out: Vdss
[33] = Volume of distribution at steady state in mouse at 1 and 3 mg/kg; assay type: ADME, organism-based; design: dose 3 mg/kg; conditions: in vivo, read-out: Vdss
[34] = Plasma clearance in dog at 1 and 3 mg/kg; assay type: ADME, organism-based, Canis lupus familiaris; design: dose 3 mg/kg
[35] = Plasma clearance in mouse at 1 and 3 mg/kg; assay type: ADME, organism-based; design: dose 3 mg/kg
[36] = Plasma clearance in rat at 1 and 3 mg/kg; assay type: ADME, organism-based; design: dose 3 mg/kg
[37] = Apparent permeability from basolateral to apical side in MDCK cells at 10 uM; assay type: ADME, cell-based, Canis lupus familiaris; conditions: dog
[38] = Percentage unbound in human plasma at 37 degC by equilibrium dialysis method; assay type: ADME, cell-free
[39] = Apparent permeability from apical to basolateral side in MDCK cells at 10 uM; assay type: ADME, cell-based, Canis lupus familiaris; conditions: dog
[40] = Percentage unbound in mouse plasma at 37 degC by equilibrium dialysis method; assay type: ADME, cell-free
[41] = Percentage unbound in dog plasma at 37 degC by equilibrium dialysis method; assay type: ADME, cell-free, Canis lupus familiaris
CYP2C9 = CYP2C9 (Homo sapiens, UniProt P11712); experiment: Inhibition of CYP2C9 at 10 uM; assay type: ADME
CYP2C19 = CYP2C19 (Homo sapiens, UniProt P33261); experiment: Inhibition of CYP2C19 at 10 uM; assay type: ADME
CYP2C19, sequence (P33261 whole entry): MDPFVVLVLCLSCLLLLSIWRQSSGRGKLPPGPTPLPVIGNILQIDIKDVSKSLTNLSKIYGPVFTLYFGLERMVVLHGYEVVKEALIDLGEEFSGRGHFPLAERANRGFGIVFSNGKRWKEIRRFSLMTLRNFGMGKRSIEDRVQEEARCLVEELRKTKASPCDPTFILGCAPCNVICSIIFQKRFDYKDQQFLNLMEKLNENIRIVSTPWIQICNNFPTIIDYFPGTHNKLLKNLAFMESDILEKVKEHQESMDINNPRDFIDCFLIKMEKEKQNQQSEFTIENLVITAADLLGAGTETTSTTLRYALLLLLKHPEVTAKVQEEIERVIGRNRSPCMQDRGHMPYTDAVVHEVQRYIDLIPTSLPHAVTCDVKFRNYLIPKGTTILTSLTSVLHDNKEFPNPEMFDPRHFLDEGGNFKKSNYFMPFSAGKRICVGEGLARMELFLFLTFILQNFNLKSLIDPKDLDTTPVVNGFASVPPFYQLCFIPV

CYP2D6 = CYP2D6 (Homo sapiens, UniProt P10635); experiment: Inhibition of CYP2D6 at 10 uM; assay type: ADME
CYP2D6, sequence (P10635 whole entry): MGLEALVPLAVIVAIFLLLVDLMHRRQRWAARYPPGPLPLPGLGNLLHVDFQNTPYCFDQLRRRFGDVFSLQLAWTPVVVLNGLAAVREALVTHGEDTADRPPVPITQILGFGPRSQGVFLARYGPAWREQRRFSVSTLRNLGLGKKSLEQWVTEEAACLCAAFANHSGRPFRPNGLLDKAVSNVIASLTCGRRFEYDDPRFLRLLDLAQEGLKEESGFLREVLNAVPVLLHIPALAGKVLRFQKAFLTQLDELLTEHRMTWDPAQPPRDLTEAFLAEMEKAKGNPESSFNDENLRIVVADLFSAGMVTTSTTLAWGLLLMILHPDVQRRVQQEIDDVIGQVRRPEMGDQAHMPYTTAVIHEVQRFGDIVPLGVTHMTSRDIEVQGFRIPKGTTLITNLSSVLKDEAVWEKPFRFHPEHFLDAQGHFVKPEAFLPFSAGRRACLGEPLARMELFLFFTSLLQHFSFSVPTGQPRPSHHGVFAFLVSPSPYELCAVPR

CYP1A2 = CYP1A2 (Homo sapiens, UniProt P05177); experiment: Inhibition of CYP1A2 at 10 uM; assay type: ADME
CYP1A2, sequence (P05177 whole entry): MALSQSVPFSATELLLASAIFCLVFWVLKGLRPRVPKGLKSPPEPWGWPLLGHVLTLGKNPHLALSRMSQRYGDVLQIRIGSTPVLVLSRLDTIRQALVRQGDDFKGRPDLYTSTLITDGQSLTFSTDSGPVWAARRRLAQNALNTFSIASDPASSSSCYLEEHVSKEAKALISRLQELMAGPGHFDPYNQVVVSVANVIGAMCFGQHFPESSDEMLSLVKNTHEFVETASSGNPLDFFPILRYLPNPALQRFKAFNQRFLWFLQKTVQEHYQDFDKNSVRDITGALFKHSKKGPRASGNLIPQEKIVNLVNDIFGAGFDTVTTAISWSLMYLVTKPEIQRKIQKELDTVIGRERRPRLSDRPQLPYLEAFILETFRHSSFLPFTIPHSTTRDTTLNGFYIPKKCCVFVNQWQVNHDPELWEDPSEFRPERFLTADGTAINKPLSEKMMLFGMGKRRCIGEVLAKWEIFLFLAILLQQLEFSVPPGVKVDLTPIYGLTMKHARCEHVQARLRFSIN

[42] = Oral bioavailability in rat; assay type: ADME, organism-based; conditions: in vivo
CYP3A4 = CYP3A4 (Homo sapiens, UniProt P08684); experiment: Inhibition of CYP3A4 at 10 uM; assay type: ADME
[43] = Aqueous solubility in pH 7.4 phosphate buffer at 25 degC incubated for 24 hrs; assay type: physicochemical
[44] = Intrinsic clearance in rat hepatocytes assessed per 10^6 cells
[45] = Percentage unbound in rat plasma at 37 degC by equilibrium dialysis method; assay type: ADME, cell-free
[46] = Lipophilicity, log D at pH 7.4 by shake flask method; conditions: buffer
[47] = target: T1, 11-beta-hydroxysteroid dehydrogenase 1
Description: Inhibition of N-terminal 6-His tagged full length human 11betaHSD1 incubated for 25 mins by HTRF assay

in vivo = conditions: rat

- IC50 [3]: 0.002 µM
- IC50 [4]: 0.024 µM
- IC50 [5]: 0.008 µM
- IC50 [6]: 0.086 µM
- IC50 [7]: 6.1 µM
- inhibition [8]: inactive
- inhibition [9]: inactive
- inhibition [10]: < 5%
- IC50 [11]: > 30 µM
- IC50 [12]: > 30 µM
- Drug metabolism [13]: 0.2%
- Drug metabolism [14]: 80.1%
- Stability [15]: 99.4%
- Stability [16]: 10.8%
- Drug metabolism [17]: 5.8%
- Stability (Hepatocyte [18]): 96%
- Stability [19]: 93.7%
- Stability (Hepatocyte [20]): 95%
- Stability (Liver microsomes): Stable
- CL (Rattus norvegicus [21]): < 1%
- CL (Canis familiaris): < 5%
- bioavailability [22]: 95%
- bioavailability [23]: 45%
- bioavailability [24]: 100%
- half-life [25]: 2.2 h
- half-life [26]: 4.9 h
- half-life [27]: 5.1 h
- half-life [28]: 5.8 h
- half-life [29]: 5.5 h
- Vd [30]: 0.1 L/kg
- half-life [31]: 0.8 h
- Vd [32]: 0.3 L/kg
- Vd [33]: 0.4 L/kg
- clearance [34]: 0.3 mL/min/kg
- clearance [35]: 9 mL/min/kg
- clearance [36]: 0.6 mL/min/kg
- Papp B→A at 10 µM [37]: 3.9 ×10⁻⁶ cm/s
- fraction unbound [38]: 0.014
- Papp A→B at 10 µM [39]: 7.3 ×10⁻⁶ cm/s
- fraction unbound [40]: 0.035
- fraction unbound [41]: 0.02
- inhibition at 10 µM (CYP2C9): < 25%
- inhibition at 10 µM (CYP2C19): < 25%
- inhibition at 10 µM (CYP2D6): < 25%
- inhibition at 10 µM (CYP1A2): < 25%
- bioavailability [42]: 95%
- inhibition at 10 µM (CYP3A4): < 25%
- solubility at 24 h [43]: > 1900 µM
- hepatocyte CLint [44]: < 2 µL/min/1e6 cells
- fraction unbound [45]: 0.013
- logD [46]: 1
- IC50 [47]: 0.009 µM
- clearance (in vivo): 0.6 mL/min/kg
SMILES: CC(C)(C)c1c(C(=O)NC2C3CC4CC(C3)CC2C4)cnn1-c1ccc(C(=O)O)cc1 (stereo not drawn)
- inhibition (Rattus norvegicus [1]): Active
- inhibition in vivo at 3 mg/kg (Rattus norvegicus [2]): 50%
- Activity (Cavia porcellus): Non-toxic
- Activity (L5178Y): Non-toxic
- Activity (Salmonella typhimurium): Non-toxic
